Experimental findings from paper PMC12833730, “Discovery of a First‐in‐Class Covalent Allosteric SHP1 Inhibitor with Immunotherapeutic Activity” (Angewandte Chemie (International Ed. in English), 2025) are described below.

For orientation: IC50 means the concentration at which inhibition is half-maximal.

Type in all cases: biochemical
Assay [1] concerns the target T1, SHP1 (Homo sapiens, UniProt P29350).
T1 construct: SHP1, residues 245-543; made in house; host or cells: E. coli BL21(DE3)
Kind of assay: Time-course pNPP progress-curve inactivation kinetics. Conditions: for k inact/K I for SHP1 inactivation: time-course pNPP assay. The text has this: Covalent inhibitors generally inactivate their targets through a two‐step process, starting with a reversible binding event (characterized by the dissociation constant K I) and followed by covalent bond formation (represented by the first‐order rate constant of inactivation k inact). Although IC50 values are often utilized to assess the potency of covalent inhibitors, the second‐order rate constant k inact/K I is preferred because it provides a measure of covalent inhibition in a time‐ and dose‐independent manner.^[ [60], [62], [67], [68] ^] Because k inact/K I measurement can be time and labor‐intensive, we developed an efficient method to determine the observed first‐order rate constant (k obs) from the analysis of a progress curve in the presence of an inhibitor.^[ [69] ^] The k obs value is then plotted as a function of inhibitor concentration to obtain the kinetic parameters k inact, K I, and k inact/K I.^[ [70] ^] […] To verify SHP1 covalent modification by Z57117023, we ascertained SHP1 covalent adduct formation by intact protein liquid chromatography‐mass spectrometry (LC‐MS).^[ [58] ^] A single SHP1‐Z57117023 adduct was observed when SHP1 was incubated with Z57117023, with a mass shift of 295.21 Da (calculated 295.54 Da) (Figure 1e), consistent with the loss of a chlorine atom from Z57117023.
Phosphatase Activity Assay: To determine the inhibition kinetics of acquired hits, repurchased compounds from Enamine were serially diluted in a 96-well plate followed by the addition of pNPP at Km concentrations of corresponding proteins. The reaction was initiated by the addition of 20 nM proteins, and the reaction progression was monitored at OD405 using a CLARIOstar Plus Microplate Spectrophotometer (BMG Labtech) for 60 minutes. After background subtraction, the obtained progress curves were fitted to the equation A = v0(1-e^-kt)/k, where A is the absorbance at 405 nm, v0 is the initial rate, k is the kobs of the corresponding reaction. The acquired kobs was then plotted against inhibitor concentrations, which were fitted to kobs = kinact[I]/(KI+[I]), where kinact is the maximum rate of inactivation, [I] is the inhibitor concentration, and KI is the reversible binding affinity of the compound to the protein. Data were fitted using Prism GraphPad 10.1.1.

In a further assay the target is T2, SHP2 (Homo sapiens, UniProt Q06124).
T2 construct: SHP2, residues 224-528; made in house; host or cells: E. coli BL21(DE3)
T2 sequence (Q06124 224-528): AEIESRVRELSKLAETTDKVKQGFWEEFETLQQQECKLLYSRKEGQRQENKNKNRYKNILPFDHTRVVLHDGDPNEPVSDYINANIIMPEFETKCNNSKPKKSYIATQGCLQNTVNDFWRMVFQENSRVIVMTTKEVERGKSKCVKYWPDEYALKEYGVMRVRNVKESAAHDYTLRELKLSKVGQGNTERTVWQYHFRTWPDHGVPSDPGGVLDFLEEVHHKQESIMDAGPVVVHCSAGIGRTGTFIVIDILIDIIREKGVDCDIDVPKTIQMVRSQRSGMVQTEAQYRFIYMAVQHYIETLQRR
In words: IC50 after preincubation, DiFMUP phosphatase assay. The method, then: (§1) To further confirm the time-dependent inhibition and determine the IC50 of acquired hits, repurchased compounds from Enamine were serially diluted in a 96-well plate, followed by the addition of proteins at 200 nM. After 10-minute and 60-minute preincubation, 2 µL of the mixture was transferred into 100 µM 6,8-Difluoro-4-Methylumbelliferyl Phosphate (DiFMUP, Invitrogen, cat# D6567) at a final volume of 200 µL. The reaction was allowed to proceed for 5 minutes and quenched by the addition of 40 µl of a 160 µM solution of bpV(Phen) (Sigma-Aldrich, cat# SML0889). The fluorescence signal was measured using a CLARIOstar Plus Microplate Spectrophotometer (BMG Labtech) using excitation and emission wavelengths of 340 nm and 450 nm, respectively. Data were fitted using Prism GraphPad 10.1.1.

Assay [2] addresses T1, SHP1. In words: IC50 after 10-min/60-min preincubation, DiFMUP phosphatase assay.
Source text: The PTP‐catalyzed reaction involves a nucleophilic attack by the conserved active site Cys side chain on the phosphorus atom of phosphotyrosine in the substrate.^[ [53] ^] As such, the PTPs could serve as prime targets for covalent inhibition. Previously described activity‐based probes or covalent ligands for the PTPs are either phosphotyrosine isosteres or thiol‐reactive compounds that covalently modify the active site residues (including the catalytic Cys) and lack sufficient isozyme specificity.^[ [54], [55], [56], [57], [58], [59], [60], [61] ^] Inspired by the resurgence in covalent inhibitors for difficult drug targets, we set out to discover covalent SHP1 inhibitors by screening for electrophilic fragments that bind covalently to SHP1. This strategy is increasingly utilized to identify novel ligands for a target of interest.^[ [47], [62], [63] ^] We assembled a library of 4600 Cys reactive molecules from the Enamine covalent fragment collections containing 49.0% acrylamide, 38.1% chloroacetamide, 5.15% chloromethylketone, 5.20% activated nitrile, 2.10% epoxide, and 0.53% disulfide (Figure S1A). We carried out a high‐throughput biochemical fragment screening of this curated commercially available library against the SHP1 catalytic domain (residues 245–543). Each fragment (500 µM) was incubated with SHP1 (500 nM) for 30 min at room temperature before diluting the reaction 5.5‐fold with 24.45 mM para‐nitrophenyl phosphate (pNPP) to measure the residual PTP activity. This concentration of substrate was chosen to out‐compete any remaining fragment to reduce the inactivation of SHP1 during the enzymatic hydrolysis of pNPP. After a 2‐min incubation at 25 °C, the reaction was quenched by the addition of 5N NaOH, and the production of para‐nitrophenol was determined by absorbance at 405 nm. This assay format afforded a Z’‐factor of 0.70 (Figure S1B), indicating a robust screen to reliably identify hit molecules. To enhance the probability of discovering covalent ligands with inherent preference for SHP1, we also counter‐screened the same library against SHP2, the closest homolog of SHP1, and two other widely studied PTPs, PTP1B and PTPN22 (also called LYP). […] Among these, 31 were repurchased based on their observed preference for SHP1 and structural diversity, 11 of which were confirmed as potential covalent inhibitors for SHP1 based on the time dependency of their half‐maximal inhibition concentration (IC50) values determined with a 10‐min and 60‐min preincubation time, respectively (Table 1).
as §1

Like-named read-outs stand apart in the source and are kept apart here. Where only a bound is given, the exact number is not on record here.

T1 sequence (P29350 245-543): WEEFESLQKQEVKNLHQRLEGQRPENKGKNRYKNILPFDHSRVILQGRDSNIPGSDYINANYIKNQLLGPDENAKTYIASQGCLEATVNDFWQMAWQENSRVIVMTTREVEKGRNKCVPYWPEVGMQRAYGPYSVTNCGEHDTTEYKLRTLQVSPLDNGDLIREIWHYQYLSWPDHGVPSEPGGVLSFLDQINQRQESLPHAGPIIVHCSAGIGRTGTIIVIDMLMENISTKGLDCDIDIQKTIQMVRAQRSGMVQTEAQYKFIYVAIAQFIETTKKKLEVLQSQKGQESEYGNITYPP

As for `N#Cc1ccsc1NS(=O)(=O)c1ccc(NC(=O)CCl)cc1` [M029, 2-Chloro-N-(4-(N-(3-cyanothiophen-2-yl)sulfamoyl)phenyl)acetamide], the k inact on SHP1 [1] (pH 7.0, room temperature) was found to be 0.0038 ± 0.008 s⁻¹. Moreover, the KI (inactivation) at SHP1 [1] (pH 7.0, room temperature, read-out: K I) came to 76.7 ± 12.5 µM. In addition, the “k inact/K I for SHP1 inactivation” value at SHP1 [1] is 49.55 M⁻¹ s⁻¹. For the same compound, the “k inact/K i fold higher than that of Z57117023” value on SHP1 [1] (vs Z57117023) stood at 13 fold. For the same compound, the IC50 at SHP2 (60-min preincubation, read-out: 60 min IC50, SHP2) was 58.2 ± 4.6 µM; on SHP1 [2] (60-min preincubation, read-out: 60 min IC50, SHP1), 2.6 ± 0.5 µM. For the same compound, the “selectivity over a large panel of mammalian PTPs” value on SHP1 [2] (60-min preincubation IC50 values, incl. SHP2) is listed as more than 22.4 fold.

For the compound `O=C(CCl)Nc1ccc(S(=O)(=O)Nc2nccs2)cc1` [Z57117023, 2-chloro-N-(4-(N-(thiazol-2-yl)sulfamoyl)phenyl)acetamide], the “k inact/K I for SHP1 inactivation” value on SHP1 [1] came to 3.792 M⁻¹ s⁻¹. In addition, the IC50 was more than 200 µM on SHP2 (10-min preincubation, read-out: SHP2 IC50, 10 min); more than 200 µM at SHP2 (60-min preincubation, read-out: SHP2 IC50, 60 min); 99.1 µM at SHP1 [2] (10-min preincubation, purchased hits, read-out: SHP1 IC50, 10 min); 17.5 µM at SHP1 [2] (60-min preincubation, purchased hits, read-out: SHP1 IC50, 60 min); 118 ± 8.3 µM on SHP1 [2] (resynthesized compound, 10 min preincubation, read-out: SHP1 IC50, 10 min preincubation); 25.2 ± 1.6 µM at SHP1 [2] (resynthesized compound, 60 min preincubation, read-out: SHP1 IC50, 60 min preincubation). Moreover, the “selectivity for SHP1 over SHP2, PTP1B, and PTPN22” value at SHP1 [2] (from IC50 values) was more than 11 fold.
